Laboratory results from PubChem BioAssay (NCI).
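Compound exposure: 48 hours, 5 concentrations, 96-well plates. TGI: concentration producing complete growth inhibition.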

Legend:
Assay in all cases: NCI tumour cell line growth inhibition, 48 h
[1] = system: 786-0 renal
[2] = system: A498 renal
[3] = system: A549 NSCLC
[4] = system: ACHN renal
[5] = system: BT-549 breast
[6] = system: CAKI-1 renal
[7] = system: CCRF-CEM leukemia
[8] = system: COLO 205 colon
[9] = system: DU-145 prostate
[10] = system: EKVX NSCLC
[11] = system: HCC-2998 colon
[12] = system: HCT-116 colon
[13] = system: HCT-15 colon
[14] = system: HL-60(TB) leukemia
[15] = system: HOP-62 NSCLC
[16] = system: HOP-92 NSCLC
[17] = system: HS 578T breast
[18] = system: HT29 colon
[19] = system: IGROV1 ovarian
[20] = system: K-562 leukemia
[21] = system: KM12 colon
[22] = system: LOX IMVI melanoma
[23] = system: M14 melanoma
[24] = system: MALME-3M melanoma
[25] = system: MCF7 breast
[26] = system: MDA-MB-231 breast
[27] = system: MDA-MB-435
[28] = system: MDA-N
[29] = system: MOLT-4 leukemia
[30] = system: NCI-H226 lung
[31] = system: NCI-H23 lung
[32] = system: NCI-H460 lung
[33] = system: NCI-H522 lung
[34] = system: NCI/ADR-RES ovarian
[35] = system: OVCAR-3 ovarian
[36] = system: OVCAR-4 ovarian
[37] = system: OVCAR-5 ovarian
[38] = system: OVCAR-8 ovarian
[39] = system: PC-3 prostate
[40] = system: RPMI-8226 leukemia
[41] = system: RXF 393 renal
[42] = system: SF-268 CNS
[43] = system: SF-295 CNS
[44] = system: SK-MEL-2 melanoma
[45] = system: SK-MEL-28 melanoma
[46] = system: SK-MEL-5 melanoma
[47] = system: SN12C renal
[48] = system: SNB-19 CNS
[49] = system: SNB-75 CNS
[50] = system: SR leukemia
[51] = system: SW-620 colon
[52] = system: T-47D breast
[53] = system: TK-10 renal
[54] = system: U251 CNS
[55] = system: UACC-257 melanoma
[56] = system: UACC-62 melanoma
[57] = system: UO-31 renal
[58] = system: SF-539 CNS
[59] = system: SK-OV-3 ovarian

## COC(=O)c1c(O)ccc2c1c1cc3ccccc3cc1n2Cc1cc(OC)cc(OC)c1
[1]
  TGI: > 100 µM
[2]
  TGI: > 34.3 µM
[3]
  TGI: > 100 µM
[4]
  TGI: > 100 µM
[5]
  TGI: > 100 µM
[6]
  TGI: > 28.4 µM
[7]
  TGI: > 100 µM
[8]
  TGI: > 36.1 µM
[9]
  TGI: 59.1 µM
[10]
  TGI: > 100 µM
[11]
  TGI: > 100 µM
[12]
  TGI: > 100 µM
[13]
  TGI: > 100 µM
[14]
  TGI: 30.6 µM
[15]
  TGI: > 100 µM
[16]
  TGI: > 100 µM
[17]
  TGI: 8.5 µM
[18]
  TGI: > 48.1 µM
[19]
  TGI: 1.69 µM
[20]
  TGI: > 100 µM
[21]
  TGI: > 27.1 µM
[22]
  TGI: > 100 µM
[23]
  TGI: > 100 µM
[24]
  TGI: 64.3 µM
[25]
  TGI: > 100 µM
[26]
  TGI: > 100 µM
[27]
  TGI: 1.86 µM
[28]
  TGI: 3.72 µM
[29]
  TGI: > 100 µM
[30]
  TGI: > 100 µM
[31]
  TGI: > 100 µM
[32]
  TGI: > 100 µM
[33]
  TGI: 0.415 µM
[34]
  TGI: > 29.2 µM
[35]
  TGI: 2.45 µM
[36]
  TGI: > 66.9 µM
[37]
  TGI: > 100 µM
[38]
  TGI: > 100 µM
[39]
  TGI: > 32.6 µM
[40]
  TGI: > 26.3 µM
[41]
  TGI: > 26.5 µM
[42]
  TGI: > 26.9 µM
[43]
  TGI: 7.18 µM
[44]
  TGI: 24.6 µM
[45]
  TGI: > 100 µM
[46]
  TGI: 18.5 µM
[47]
  TGI: > 100 µM
[48]
  TGI: > 100 µM
[49]
  TGI: 8.94 µM
[50]
  TGI: > 100 µM
[51]
  TGI: > 100 µM
[52]
  TGI: > 63.4 µM
[53]
  TGI: > 100 µM
[54]
  TGI: > 100 µM
[55]
  TGI: > 100 µM
[56]
  TGI: > 100 µM
[57]
  TGI: > 100 µM

## Cc1cc2cc3cc(C)c(N)cc3nc2cc1N
[1]
  TGI: 1.75 µM
[2]
  TGI: 1.89 µM
[3]
  TGI: 2.07 µM
[4]
  TGI: 1.6 µM
[5]
  TGI: > 44.5 µM
[6]
  TGI: 2.64 µM
[7]
  TGI: 2.52 µM
[8]
  TGI: 1.98 µM
[9]
  TGI: 1.87 µM
[10]
  TGI: 1.47 µM
[12]
  TGI: 1.31 µM
[13]
  TGI: 2.2 µM
[14]
  TGI: 11 µM
[15]
  TGI: 1.32 µM
[16]
  TGI: 4.89 µM
[17]
  TGI: 10.5 µM
[18]
  TGI: 1.6 µM
[19]
  TGI: 1.7 µM
[20]
  TGI: 3.28 µM
[21]
  TGI: 2.03 µM
[22]
  TGI: 2.11 µM
[23]
  TGI: 21.9 µM
[24]
  TGI: 2.72 µM
[25]
  TGI: 2.71 µM
[26]
  TGI: 1.27 µM
[27]
  TGI: 11 µM
[28]
  TGI: 2.93 µM
[29]
  TGI: 0.894 µM
[30]
  TGI: 11.7 µM
[31]
  TGI: 2.24 µM
[32]
  TGI: 1.21 µM
[33]
  TGI: 1.7 µM
[34]
  TGI: 9.83 µM
[35]
  TGI: 1.85 µM
[36]
  TGI: 1.49 µM
[37]
  TGI: 2.65 µM
[38]
  TGI: 2.2 µM
[39]
  TGI: 6.84 µM
[40]
  TGI: 1.31 µM
[41]
  TGI: 2.47 µM
[42]
  TGI: 2.71 µM
[43]
  TGI: 1.41 µM
[44]
  TGI: 10.4 µM
[45]
  TGI: 2.94 µM
[46]
  TGI: 14.6 µM
[47]
  TGI: 1.63 µM
[48]
  TGI: 3.29 µM
[49]
  TGI: 6.9 µM
[50]
  TGI: 1.44 µM
[51]
  TGI: 1.6 µM
[52]
  TGI: 2.43 µM
[53]
  TGI: 1.62 µM
[55]
  TGI: 8.57 µM
[56]
  TGI: 2.3 µM
[57]
  TGI: 10.4 µM

## COC(=O)Nc1nc2ccc(S(=O)(=O)Nc3ccccn3)cc2[nH]1
[1]
  TGI: > 100 µM
[2]
  TGI: > 100 µM
[3]
  TGI: > 100 µM
[4]
  TGI: > 100 µM
[5]
  TGI: > 100 µM
[6]
  TGI: > 100 µM
[7]
  TGI: 54.2 µM
[8]
  TGI: > 100 µM
[9]
  TGI: > 100 µM
[10]
  TGI: > 100 µM
[12]
  TGI: > 100 µM
[13]
  TGI: > 100 µM
[14]
  TGI: 34.8 µM
[15]
  TGI: > 100 µM
[16]
  TGI: > 100 µM
[17]
  TGI: > 100 µM
[18]
  TGI: > 100 µM
[19]
  TGI: > 100 µM
[20]
  TGI: 75.9 µM
[21]
  TGI: > 100 µM
[22]
  TGI: > 100 µM
[23]
  TGI: > 100 µM
[24]
  TGI: > 100 µM
[25]
  TGI: > 100 µM
[26]
  TGI: > 100 µM
[27]
  TGI: 44.5 µM
[28]
  TGI: > 100 µM
[29]
  TGI: 64 µM
[30]
  TGI: > 100 µM
[31]
  TGI: > 100 µM
[32]
  TGI: > 100 µM
[33]
  TGI: > 100 µM
[34]
  TGI: > 100 µM
[35]
  TGI: > 100 µM
[36]
  TGI: > 100 µM
[37]
  TGI: > 100 µM
[38]
  TGI: > 100 µM
[39]
  TGI: > 100 µM
[40]
  TGI: 40.6 µM
[41]
  TGI: > 100 µM
[42]
  TGI: > 100 µM
[43]
  TGI: > 100 µM
[58]
  TGI: 52.6 µM
[44]
  TGI: > 100 µM
[45]
  TGI: 56.2 µM
[46]
  TGI: > 100 µM
[59]
  TGI: > 100 µM
[47]
  TGI: > 100 µM
[48]
  TGI: > 100 µM
[49]
  TGI: 71.1 µM
[50]
  TGI: 64.1 µM
[51]
  TGI: 66.6 µM
[52]
  TGI: > 100 µM
[53]
  TGI: 70.3 µM
[54]
  TGI: > 100 µM
[55]
  TGI: 93.5 µM
[56]
  TGI: > 100 µM
[57]
  TGI: > 100 µM
